Laboratory results: PubChem BioAssay (NCI)
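Exposure lasted 48 hours, with cells grown in 96-well plates and compounds tested at five concentrations. At the TGI there is no net growth.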

Assays:
Assay in all cases: NCI-60 cell line screen, 48 h
K-562 leukemia = tested on: K-562 leukemia
BT-549 breast = tested on: BT-549 breast
HOP-62 NSCLC = tested on: HOP-62 NSCLC
MOLT-4 leukemia = tested on: MOLT-4 leukemia
NCI/ADR-RES ovarian = tested on: NCI/ADR-RES ovarian
MDA-N = tested on: MDA-N
NCI-H460 lung = tested on: NCI-H460 lung
MDA-MB-231 breast = tested on: MDA-MB-231 breast
CCRF-CEM leukemia = tested on: CCRF-CEM leukemia
786-0 renal = tested on: 786-0 renal
LOX IMVI melanoma = tested on: LOX IMVI melanoma
SK-OV-3 ovarian = tested on: SK-OV-3 ovarian
COLO 205 colon = tested on: COLO 205 colon
MALME-3M melanoma = tested on: MALME-3M melanoma
A549 NSCLC = tested on: A549 NSCLC
M14 melanoma = tested on: M14 melanoma
MDA-MB-435 = tested on: MDA-MB-435
T-47D breast = tested on: T-47D breast
HT29 colon = tested on: HT29 colon
HCT-116 colon = tested on: HCT-116 colon
NCI-H226 lung = tested on: NCI-H226 lung
NCI-H23 lung = tested on: NCI-H23 lung
A498 renal = tested on: A498 renal
HOP-92 NSCLC = tested on: HOP-92 NSCLC
SF-268 CNS = tested on: SF-268 CNS
IGROV1 ovarian = tested on: IGROV1 ovarian
SK-MEL-2 melanoma = tested on: SK-MEL-2 melanoma
KM12 colon = tested on: KM12 colon
HCT-15 colon = tested on: HCT-15 colon
DU-145 prostate = tested on: DU-145 prostate
HCC-2998 colon = tested on: HCC-2998 colon
OVCAR-5 ovarian = tested on: OVCAR-5 ovarian
SW-620 colon = tested on: SW-620 colon
EKVX NSCLC = tested on: EKVX NSCLC
UACC-62 melanoma = tested on: UACC-62 melanoma
SF-539 CNS = tested on: SF-539 CNS
SN12C renal = tested on: SN12C renal
U251 CNS = tested on: U251 CNS
SR leukemia = tested on: SR leukemia
OVCAR-4 ovarian = tested on: OVCAR-4 ovarian
SK-MEL-5 melanoma = tested on: SK-MEL-5 melanoma
CAKI-1 renal = tested on: CAKI-1 renal
UACC-257 melanoma = tested on: UACC-257 melanoma
SF-295 CNS = tested on: SF-295 CNS
PC-3 prostate = tested on: PC-3 prostate
HS 578T breast = tested on: HS 578T breast
SNB-19 CNS = tested on: SNB-19 CNS
UO-31 renal = tested on: UO-31 renal
RPMI-8226 leukemia = tested on: RPMI-8226 leukemia
HL-60(TB) leukemia = tested on: HL-60(TB) leukemia
MCF7 breast = tested on: MCF7 breast
SK-MEL-28 melanoma = tested on: SK-MEL-28 melanoma
OVCAR-3 ovarian = tested on: OVCAR-3 ovarian
SNB-75 CNS = tested on: SNB-75 CNS
RXF 393 renal = tested on: RXF 393 renal
OVCAR-8 ovarian = tested on: OVCAR-8 ovarian
TK-10 renal = tested on: TK-10 renal
ACHN renal = tested on: ACHN renal
NCI-H522 lung = tested on: NCI-H522 lung

Cc1ccc(S[C@@](C=O)(NC(=O)OCc2ccccc2)C(F)(F)F)cc1
TGI (K-562 leukemia): > 100 µM | TGI (BT-549 breast): 81.8 µM | TGI (HOP-62 NSCLC): 88.3 µM | TGI (MOLT-4 leukemia): 52 µM | TGI (NCI/ADR-RES ovarian): 51.8 µM | TGI (MDA-N): 58.5 µM | TGI (NCI-H460 lung): 79.3 µM | TGI (MDA-MB-231 breast): 58.7 µM | TGI (CCRF-CEM leukemia): 52.3 µM | TGI (786-0 renal): 47.5 µM | TGI (LOX IMVI melanoma): 48.8 µM | TGI (SK-OV-3 ovarian): > 100 µM | TGI (COLO 205 colon): 35.5 µM | TGI (MALME-3M melanoma): 78.3 µM | TGI (A549 NSCLC): 88.3 µM | TGI (M14 melanoma): 78.6 µM | TGI (MDA-MB-435): 86.3 µM | TGI (T-47D breast): 71 µM | TGI (HT29 colon): 37.9 µM | TGI (HCT-116 colon): 36.7 µM | TGI (NCI-H226 lung): 40.2 µM | TGI (NCI-H23 lung): 39.8 µM | TGI (A498 renal): > 100 µM | TGI (HOP-92 NSCLC): 65.3 µM | TGI (SF-268 CNS): > 100 µM | TGI (IGROV1 ovarian): 54.3 µM | TGI (SK-MEL-2 melanoma): 60.8 µM | TGI (KM12 colon): 52.8 µM | TGI (HCT-15 colon): 54.4 µM | TGI (DU-145 prostate): 47.4 µM | TGI (HCC-2998 colon): > 100 µM | TGI (OVCAR-5 ovarian): 54.8 µM | TGI (SW-620 colon): 66.9 µM | TGI (EKVX NSCLC): 54 µM | TGI (UACC-62 melanoma): 40.4 µM | TGI (SF-539 CNS): 70.9 µM | TGI (SN12C renal): 91.7 µM | TGI (U251 CNS): 40.7 µM | TGI (SR leukemia): 44.4 µM | TGI (OVCAR-4 ovarian): > 100 µM | TGI (SK-MEL-5 melanoma): 41.4 µM | TGI (CAKI-1 renal): 63.8 µM | TGI (UACC-257 melanoma): > 100 µM | TGI (SF-295 CNS): > 100 µM | TGI (PC-3 prostate): 54.9 µM | TGI (HS 578T breast): > 100 µM | TGI (SNB-19 CNS): 62.4 µM | TGI (UO-31 renal): 36.6 µM | TGI (RPMI-8226 leukemia): 57.2 µM | TGI (HL-60(TB) leukemia): 41.8 µM | TGI (MCF7 breast): 78.4 µM | TGI (SK-MEL-28 melanoma): 67.1 µM | TGI (OVCAR-3 ovarian): > 100 µM | TGI (SNB-75 CNS): 80 µM | TGI (RXF 393 renal): 31.2 µM | TGI (OVCAR-8 ovarian): 43.7 µM

Cc1cc(N(CCC#N)CCC#N)ccc1/C(N=Nc1ccccc1)=N\NC(=O)c1cc(Cl)ccc1O
TGI (K-562 leukemia): > 100 µM | TGI (BT-549 breast): 57 µM | TGI (HOP-62 NSCLC): > 100 µM | TGI (MOLT-4 leukemia): 92.6 µM | TGI (NCI/ADR-RES ovarian): 72.7 µM | TGI (MDA-N): > 100 µM | TGI (NCI-H460 lung): 57.5 µM | TGI (MDA-MB-231 breast): 83 µM | TGI (CCRF-CEM leukemia): 96.3 µM | TGI (786-0 renal): 70.3 µM | TGI (SK-OV-3 ovarian): > 100 µM | TGI (COLO 205 colon): 39.1 µM | TGI (MALME-3M melanoma): 78.3 µM | TGI (A549 NSCLC): > 100 µM | TGI (M14 melanoma): > 100 µM | TGI (TK-10 renal): 52.2 µM | TGI (MDA-MB-435): > 100 µM | TGI (T-47D breast): 55.9 µM | TGI (HT29 colon): 35.4 µM | TGI (HCT-116 colon): 36.7 µM | TGI (NCI-H226 lung): > 100 µM | TGI (NCI-H23 lung): 35.1 µM | TGI (A498 renal): > 100 µM | TGI (SF-268 CNS): > 100 µM | TGI (IGROV1 ovarian): > 100 µM | TGI (SK-MEL-2 melanoma): > 100 µM | TGI (KM12 colon): > 100 µM | TGI (HCT-15 colon): 53.1 µM | TGI (DU-145 prostate): > 100 µM | TGI (HCC-2998 colon): 31.8 µM | TGI (EKVX NSCLC): > 100 µM | TGI (UACC-62 melanoma): 27.7 µM | TGI (SF-539 CNS): 58.3 µM | TGI (SN12C renal): > 100 µM | TGI (U251 CNS): > 100 µM | TGI (SR leukemia): 79.5 µM | TGI (OVCAR-4 ovarian): 65.4 µM | TGI (SK-MEL-5 melanoma): 46.5 µM | TGI (CAKI-1 renal): > 100 µM | TGI (UACC-257 melanoma): 40.5 µM | TGI (SF-295 CNS): > 100 µM | TGI (PC-3 prostate): > 100 µM | TGI (ACHN renal): 42.6 µM | TGI (HS 578T breast): 80.2 µM | TGI (SNB-19 CNS): > 100 µM | TGI (UO-31 renal): 41.3 µM | TGI (RPMI-8226 leukemia): > 100 µM | TGI (HL-60(TB) leukemia): > 100 µM | TGI (MCF7 breast): 67.9 µM | TGI (NCI-H522 lung): 31 µM | TGI (OVCAR-3 ovarian): 72.8 µM | TGI (SNB-75 CNS): > 100 µM | TGI (RXF 393 renal): 70.2 µM | TGI (OVCAR-8 ovarian): 81.5 µM

COC(=O)[C@@H]1[C@@H]2NC(=S)N[C@@]1(C)Oc1ccccc12
TGI (K-562 leukemia): > 100 µM | TGI (BT-549 breast): > 100 µM | TGI (HOP-62 NSCLC): > 100 µM | TGI (MOLT-4 leukemia): > 100 µM | TGI (NCI/ADR-RES ovarian): > 100 µM | TGI (MDA-N): 88.1 µM | TGI (NCI-H460 lung): > 100 µM | TGI (MDA-MB-231 breast): > 100 µM | TGI (CCRF-CEM leukemia): > 100 µM | TGI (786-0 renal): > 100 µM | TGI (LOX IMVI melanoma): > 100 µM | TGI (SK-OV-3 ovarian): > 100 µM | TGI (COLO 205 colon): > 100 µM | TGI (MALME-3M melanoma): > 100 µM | TGI (M14 melanoma): > 100 µM | TGI (TK-10 renal): > 100 µM | TGI (MDA-MB-435): 33.5 µM | TGI (T-47D breast): > 100 µM | TGI (HT29 colon): > 100 µM | TGI (HCT-116 colon): > 100 µM | TGI (NCI-H226 lung): > 100 µM | TGI (NCI-H23 lung): > 100 µM | TGI (A498 renal): > 100 µM | TGI (HOP-92 NSCLC): > 100 µM | TGI (SF-268 CNS): > 100 µM | TGI (IGROV1 ovarian): > 100 µM | TGI (SK-MEL-2 melanoma): > 100 µM | TGI (KM12 colon): > 100 µM | TGI (HCT-15 colon): > 100 µM | TGI (DU-145 prostate): > 100 µM | TGI (HCC-2998 colon): > 100 µM | TGI (OVCAR-5 ovarian): > 100 µM | TGI (SW-620 colon): > 100 µM | TGI (EKVX NSCLC): > 100 µM | TGI (UACC-62 melanoma): > 100 µM | TGI (SF-539 CNS): > 100 µM | TGI (SN12C renal): > 100 µM | TGI (U251 CNS): > 100 µM | TGI (SR leukemia): > 100 µM | TGI (OVCAR-4 ovarian): > 100 µM | TGI (SK-MEL-5 melanoma): > 100 µM | TGI (CAKI-1 renal): > 100 µM | TGI (UACC-257 melanoma): > 100 µM | TGI (SF-295 CNS): > 100 µM | TGI (PC-3 prostate): > 100 µM | TGI (ACHN renal): > 100 µM | TGI (HS 578T breast): > 100 µM | TGI (SNB-19 CNS): > 100 µM | TGI (UO-31 renal): > 100 µM | TGI (RPMI-8226 leukemia): > 100 µM | TGI (MCF7 breast): > 100 µM | TGI (SK-MEL-28 melanoma): > 100 µM | TGI (NCI-H522 lung): > 100 µM | TGI (OVCAR-3 ovarian): > 100 µM | TGI (SNB-75 CNS): > 100 µM | TGI (RXF 393 renal): > 100 µM | TGI (OVCAR-8 ovarian): > 100 µM
